Experimental data from patent publication US4619925A, “3-Propenyl cephalosporin derivatives” (priority 1985, dated 1986).
≈ marks a conversion by molar mass, not a printed value.

Tests used:
Assay type in all cases: cell-based
H. influenzae A22481 = assay: In vitro activity against fastidious bacteria; conditions: Haemophilus influenzae, ampicillin-resistant (ABPC-R)
From the text: (§1) Table 5 contains comparative data for in vitro antibacterial activity against fastidious bacteria.

S. pneumoniae A20759 = assay: In vitro activity against fastidious bacteria; conditions: Streptococcus pneumoniae, A20759
From the text: as §1

N. meningitidis A20048 = assay: In vitro activity against fastidious bacteria; conditions: Neisseria meningitidis, A20048
From the text: as §1

H. influenzae A9729 = assay: In vitro activity against fastidious bacteria; conditions: Haemophilus influenzae; H. influenzae A9729; ampicillin-sensitive (ABPC-S); read-out: MIC
From the text: as §1

H. influenzae A9833 = assay: In vitro activity against fastidious bacteria; conditions: Haemophilus influenzae; H. influenzae A9833; ampicillin-sensitive (ABPC-S); read-out: MIC
From the text: as §1

S. pyogenes A20065 = assay: In vitro activity against fastidious bacteria; conditions: Streptococcus pyogenes, A20065
From the text: as §1

S. pneumoniae Type I = assay: In vitro activity against fastidious bacteria; conditions: Streptococcus pneumoniae
From the text: as §1

S. pyogenes A20201 = assay: In vitro activity against fastidious bacteria; conditions: Streptococcus pyogenes, A20201
From the text: as §1

S. pyogenes s-23 = assay: In vitro activity against fastidious bacteria; conditions: Streptococcus pyogenes, S23
From the text: as §1

N. meningitidis A21487 = assay: In vitro activity against fastidious bacteria; conditions: Neisseria meningitidis, A21487
From the text: as §1

S. pyogenes A9604 = assay: In vitro activity against fastidious bacteria; conditions: Streptococcus pyogenes, A9604
From the text: as §1

N. meningitidis A21495 = assay: In vitro activity against fastidious bacteria; conditions: Neisseria meningitidis, A21495
From the text: as §1

H. influenzae A22482 = assay: In vitro activity against fastidious bacteria; conditions: Haemophilus influenzae; H. influenzae A22482; ampicillin-sensitive (ABPC-S); read-out: MIC
From the text: as §1

N. meningitidis A20049 = assay: In vitro activity against fastidious bacteria; conditions: Neisseria meningitidis, A20049
From the text: as §1

H. influenzae A22491 = assay: In vitro activity against fastidious bacteria; conditions: Haemophilus influenzae, ampicillin-resistant (ABPC-R)
From the text: as §1

S. pneumoniae A15069 = assay: In vitro activity against fastidious bacteria; conditions: Streptococcus pneumoniae, A15069
From the text: as §1

S. pneumoniae Type III = assay: In vitro activity against fastidious bacteria; conditions: Streptococcus pneumoniae
From the text: as §1

S. pyogenes Dick = assay: In vitro activity against fastidious bacteria; conditions: Streptococcus pyogenes
From the text: as §1

S. pyogenes A15040 = assay: In vitro activity against fastidious bacteria; conditions: Streptococcus pyogenes, A15040
From the text: as §1

H. influenzae A22157 = assay: In vitro activity against fastidious bacteria; conditions: Haemophilus influenzae, ampicillin-resistant (ABPC-R)
From the text: as §1

H. influenzae A22483 = assay: In vitro activity against fastidious bacteria; conditions: Haemophilus influenzae; H. influenzae A22483; ampicillin-sensitive (ABPC-S); read-out: MIC
From the text: as §1

N. meningitidis A21497 = assay: In vitro activity against fastidious bacteria; conditions: Neisseria meningitidis, A21497
From the text: as §1

E. coli A20341-1 = assay: MIC, agar dilution technique (Mueller-Hinton Agar); conditions: Escherichia coli, A203411, read-out: Minimum Inhibitory Concentration
From the text: (§2) Each of these groups of organisms is constituted of five individual strains of microorganism. The Gp-Ia organisms are Gram-positive staphylococci which are sensitive to penicillin. The Gp-Ib organisms are Gram-positive staphylococci which are resistant to penicillin and produce penicillinase. The Gn-Ia organisms are Gram-negative bacteria which are sensitive to ampicillin and cephalothin. The Gn-Ib organisms are Gram-negative bacteria which are resistant to ampicillin and cephalothin.

E. coli A15148 = assay: MIC, agar dilution technique (Mueller-Hinton Agar); conditions: Escherichia coli; E. coli A15148; Gn-Ib, ampicillin and cephalothin resistant; read-out: Minimum Inhibitory Concentration
From the text: as §2

K. pneumoniae A20345 = assay: MIC, agar dilution technique (Mueller-Hinton Agar); conditions: Klebsiella pneumoniae, Gn-Ib, ampicillin and cephalothin resistant, read-out: Minimum Inhibitory Concentration
From the text: as §2

E. coli Juhl = assay: MIC, agar dilution technique (Mueller-Hinton Agar); conditions: Escherichia coli, read-out: Minimum Inhibitory Concentration
From the text: as §2

K. pneumoniae A20346 = assay: MIC, agar dilution technique (Mueller-Hinton Agar); conditions: Klebsiella pneumoniae, A20346, read-out: Minimum Inhibitory Concentration
From the text: as §2

S. aureus A9602 = assay: MIC, agar dilution technique (Mueller-Hinton Agar); conditions: Staphylococcus aureus; S. aureus A9602; Gp-Ib, penicillin resistant; read-out: Minimum Inhibitory Concentration
From the text: as §2

S. aureus A9497 = assay: MIC, agar dilution technique (Mueller-Hinton Agar); conditions: Staphylococcus aureus, Gp-Ia, penicillin sensitive, read-out: Minimum Inhibitory Concentration
From the text: as §2

P. mirabilis A9900 = assay: MIC, agar dilution technique (Mueller-Hinton Agar); conditions: Proteus mirabilis, A9900, read-out: Minimum Inhibitory Concentration
From the text: as §2

S. aureus BX-1633-2 = assay: MIC, agar dilution technique (Mueller-Hinton Agar); conditions: Staphylococcus aureus, BX16332, read-out: Minimum Inhibitory Concentration
From the text: as §2

S. aureus Smith = assay: MIC, agar dilution technique (Mueller-Hinton Agar); conditions: Staphylococcus aureus, Gp-Ia, penicillin sensitive, read-out: Minimum Inhibitory Concentration
From the text: as §2

E coli RGN-823 = assay: MIC, agar dilution technique (Mueller-Hinton Agar); conditions: Escherichia coli, RGN823, Gn-Ib, ampicillin and cephalothin resistant, read-out: Minimum Inhibitory Concentration
From the text: as §2

S. aureus A15092 = assay: MIC, agar dilution technique (Mueller-Hinton Agar); conditions: Staphylococcus aureus, Gp-Ib, penicillin resistant, read-out: Minimum Inhibitory Concentration
From the text: as §2

E. coli A9660 = assay: MIC, agar dilution technique (Mueller-Hinton Agar); conditions: Escherichia coli, A9660, read-out: Minimum Inhibitory Concentration
From the text: as §2

P. mirabilis A9554 = assay: MIC, agar dilution technique (Mueller-Hinton Agar); conditions: Proteus mirabilis, A9554, read-out: Minimum Inhibitory Concentration
From the text: as §2

K. pneumoniae D11 = assay: MIC, agar dilution technique (Mueller-Hinton Agar); conditions: Klebsiella pneumoniae, D11, read-out: Minimum Inhibitory Concentration
From the text: as §2

S. aureus Russell = assay: MIC, agar dilution technique (Mueller-Hinton Agar); conditions: Staphylococcus aureus; S. aureus Russell; Gp-Ib, penicillin resistant; read-out: Minimum Inhibitory Concentration
From the text: as §2

S. aureus Terajima = assay: MIC, agar dilution technique (Mueller-Hinton Agar); conditions: Staphylococcus aureus, Gp-Ia, penicillin sensitive, read-out: Minimum Inhibitory Concentration
From the text: as §2

S. aureus A9601 = assay: MIC, agar dilution technique (Mueller-Hinton Agar); conditions: Staphylococcus aureus, A9601, read-out: Minimum Inhibitory Concentration
From the text: as §2

S. aureus No. 193 = assay: MIC, agar dilution technique (Mueller-Hinton Agar); conditions: Staphylococcus aureus, Gp-Ib, penicillin resistant, read-out: Minimum Inhibitory Concentration
From the text: as §2

S. aureus A9534 = assay: MIC, agar dilution technique (Mueller-Hinton Agar); conditions: Staphylococcus aureus, Gp-Ia, penicillin sensitive, read-out: Minimum Inhibitory Concentration
From the text: as §2

SMILES: CC1=C(C(=O)O)N2C(=O)[C@@H](NC(=O)[C@H](N)c3ccccc3)[C@H]2SC1 [cephalexin]
- MIC (H. influenzae A22481): 3.1 µg/mL (≈ 8.92 µM)
- MIC (S. pneumoniae A20759): 3.1 µg/mL (≈ 8.92 µM)
- MIC (N. meningitidis A20048): 3.1 µg/mL (≈ 8.92 µM)
- MIC (H. influenzae A9729): 3.1 µg/mL (≈ 8.92 µM)
- MIC (H. influenzae A9833): 3.1 µg/mL (≈ 8.92 µM)
- MIC (S. pyogenes A20065): 0.8 µg/mL (≈ 2.3 µM)
- MIC (S. pneumoniae Type I): 3.1 µg/mL (≈ 8.92 µM)
- MIC (S. pyogenes A20201): 0.8 µg/mL (≈ 2.3 µM)
- MIC (S. pyogenes s-23): 0.8 µg/mL (≈ 2.3 µM)
- MIC (N. meningitidis A21487): 3.1 µg/mL (≈ 8.92 µM)
- MIC (S. pyogenes A9604): 0.8 µg/mL (≈ 2.3 µM)
- MIC (N. meningitidis A21495): 3.1 µg/mL (≈ 8.92 µM)
- MIC (H. influenzae A22482): 3.1 µg/mL (≈ 8.92 µM)
- MIC (N. meningitidis A20049): 3.1 µg/mL (≈ 8.92 µM)
- MIC (H. influenzae A22491): 3.1 µg/mL (≈ 8.92 µM)
- MIC (S. pneumoniae A15069): 3.1 µg/mL (≈ 8.92 µM)
- MIC (S. pneumoniae Type III): 3.1 µg/mL (≈ 8.92 µM)
- MIC (S. pyogenes Dick): 0.8 µg/mL (≈ 2.3 µM)
- MIC (S. pyogenes A15040): 0.8 µg/mL (≈ 2.3 µM)
- MIC (H. influenzae A22157): 3.1 µg/mL (≈ 8.92 µM)
- MIC (H. influenzae A22483): 3.1 µg/mL (≈ 8.92 µM)
- MIC (N. meningitidis A21497): 3.1 µg/mL (≈ 8.92 µM)
- MIC (E. coli A20341-1): 6.3 µg/mL (≈ 18.1 µM)
- MIC (E. coli A15148): 100 µg/mL (≈ 288 µM)
- MIC (K. pneumoniae A20345): 6.3 µg/mL (≈ 18.1 µM)
- MIC (E. coli Juhl): 6.3 µg/mL (≈ 18.1 µM)
- MIC (K. pneumoniae A20346): 6.3 µg/mL (≈ 18.1 µM)
- MIC (S. aureus A9602): 3.1 µg/mL (≈ 8.92 µM)
- MIC (S. aureus A9497): 1.6 µg/mL (≈ 4.61 µM)
- MIC (P. mirabilis A9900): 12.5 µg/mL (≈ 36 µM)
- MIC (S. aureus BX-1633-2): 6.3 µg/mL (≈ 18.1 µM)
- MIC (S. aureus Smith): 1.6 µg/mL (≈ 4.61 µM)
- MIC (E coli RGN-823): 12.5 µg/mL (≈ 36 µM)
- MIC (S. aureus A15092): 6.3 µg/mL (≈ 18.1 µM)
- MIC (E. coli A9660): 6.3 µg/mL (≈ 18.1 µM)
- MIC (P. mirabilis A9554): 12.5 µg/mL (≈ 36 µM)
- MIC (K. pneumoniae D11): 6.3 µg/mL (≈ 18.1 µM)
- MIC (S. aureus Russell): 3.1 µg/mL (≈ 8.92 µM)
- MIC (S. aureus Terajima): 1.6 µg/mL (≈ 4.61 µM)
- MIC (S. aureus A9601): 1.6 µg/mL (≈ 4.61 µM)
- MIC (S. aureus No. 193): 6.3 µg/mL (≈ 18.1 µM)
- MIC (S. aureus A9534): 1.6 µg/mL (≈ 4.61 µM)
